# Where a name gives a salt, the structure may show the parent alone.
# Assays:
# Type in all cases: biochemical
# Human Thrombin = Human Thrombin (Homo sapiens, UniProt P00734); test: Inhibition of the amidase activity of thrombin (Kass); conditions: chromogenic substrate N-benzoyl-Phe-Val-Arg-p-nitroanilide; mean over range of concentrations
# Procedure: The 150 μL of an aqueous solution of the chromogenic substrate (at 0.25 mg/mL) are added and the rates of hydrolysis of the substrate are measured by monitoring the reactions at 405 nm for the release of p-nitroaniline. Standard curves are constructed by plotting free thrombin concentration against hydrolysis rate. […] The amount of free inhibitor in each assay is calculated by subtracting the number of moles of bound thrombin from the number of moles of added inhibitor (test compound).
# The Kass value is the hypothetical equilibrium constant for the reaction between thrombin and the test compound (I).
# Kass is calculated for a range of concentrations of test compounds and the mean value is reported in units of liter per mole.
# factor Xa = biological target: T1, factor Xa (Homo sapiens, UniProt P00742); test: Kass, factor Xa chromogenic substrate assay; conditions: substrate N-Benzoyl-Ile-Glu-Gly-Arg-p-nitroanilide
# T1 construct: Human factors X, Xa, IXa, XIa, and XIIa are purchased; purchased Enzyme Research Laboratories, South Bend, Ind
# T1 sequence (P00742 235-488 limits assumed): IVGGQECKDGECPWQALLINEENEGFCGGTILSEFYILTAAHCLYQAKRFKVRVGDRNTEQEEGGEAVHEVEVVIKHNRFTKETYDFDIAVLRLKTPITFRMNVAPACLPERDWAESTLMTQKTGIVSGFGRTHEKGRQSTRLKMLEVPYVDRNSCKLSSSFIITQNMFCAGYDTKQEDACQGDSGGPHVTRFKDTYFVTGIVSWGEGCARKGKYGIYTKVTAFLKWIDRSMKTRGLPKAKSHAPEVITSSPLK
# T1 sequence (P00742 41-179 partner limits assumed): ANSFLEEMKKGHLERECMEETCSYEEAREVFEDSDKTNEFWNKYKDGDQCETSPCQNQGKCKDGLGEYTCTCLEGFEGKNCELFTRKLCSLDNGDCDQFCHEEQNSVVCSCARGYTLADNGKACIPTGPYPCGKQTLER
# Bovine trypsin = biological target: T2, Bovine trypsin (Bos taurus, UniProt P00760); test: Kass, trypsin chromogenic substrate assay; conditions: substrate N-Benzoyl-Phe-Val-Arg-p-nitroanilide
# T2 construct: Bovine trypsin is purchased from Worthington Biochemicals; purchased Worthington Biochemicals, Freehold, N.J
# T2 sequence (P00760 24-246): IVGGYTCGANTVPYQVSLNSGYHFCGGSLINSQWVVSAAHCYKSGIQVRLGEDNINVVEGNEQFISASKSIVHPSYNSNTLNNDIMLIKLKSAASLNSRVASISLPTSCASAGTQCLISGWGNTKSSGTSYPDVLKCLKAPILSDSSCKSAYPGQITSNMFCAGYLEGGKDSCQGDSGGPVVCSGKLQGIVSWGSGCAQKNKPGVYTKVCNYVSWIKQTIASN
# Procedure: By substantially following the procedures described above for human thrombin, and using other human blood coagulation system serine proteases and proteases of the fibrinolytic system with the appropriate chromogenic substrates, identified below, selectivity of the compounds of the present invention with respect to the coagulation factor serine proteases and with respect to the fibrinolytic system serine proteases are evaluated as well as their substantial lack of interference with serine proteases of the fibrinolytic system.
# Chromogenic substrates: N-Benzoyl-Ile-Glu-Gly-Arg-p-nitroanilide (for factor Xa); N-Cbz-D-Arg-Gly-Arg-p-nitroanilide (for factor IXa assay as the factor Xa substrate); Pyroglutamyl-Pro-Arg-p-nitroanilide (for Factor XIa and for aPC); H-D-Pro-Phe-Arg-p-nitroanilide (for factor XIIa); and Pyroglutamyl-Gly-Arg-p-nitroanilide (for urokinase); are purchased from KabiVirum, Stockholm, Sweden, or from Midwest Biotech, Fishers, Ind. Bovine trypsin is purchased from Worthington Biochemicals, Freehold, N.J., and human plasma kallikrein from Kabi Vitrum, Stockholm, Sweden. […] N-Benzoyl-Phe-Val-Arg-p-nitroanilide, the substrate for human thrombin and for trypsin, is synthesized according to procedures described above for the compounds of the present invention, using known methods of peptide coupling from commercially available reactants or purchased from Midwest Biotech, Fishers, Ind.
# Human plasmin = biological target: T3, Human plasmin (Homo sapiens, UniProt P00747); test: Kass, plasmin chromogenic substrate assay; conditions: substrate H-D-Val-Leu-Lys-p-nitroanilide
# T3 construct: Human plasmin is purchased from Boehringer Mannheim; purchased Boehringer Mannheim, Indianapolis, Ind
# T3 sequence (P00747 581-810 limits assumed): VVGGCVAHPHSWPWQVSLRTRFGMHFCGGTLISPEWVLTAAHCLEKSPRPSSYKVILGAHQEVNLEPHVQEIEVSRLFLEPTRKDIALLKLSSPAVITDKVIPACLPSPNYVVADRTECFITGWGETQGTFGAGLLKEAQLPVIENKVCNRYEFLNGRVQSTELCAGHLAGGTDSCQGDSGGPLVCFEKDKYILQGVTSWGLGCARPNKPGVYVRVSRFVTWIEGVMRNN
# T3 sequence (P00747 97-580 partner limits assumed): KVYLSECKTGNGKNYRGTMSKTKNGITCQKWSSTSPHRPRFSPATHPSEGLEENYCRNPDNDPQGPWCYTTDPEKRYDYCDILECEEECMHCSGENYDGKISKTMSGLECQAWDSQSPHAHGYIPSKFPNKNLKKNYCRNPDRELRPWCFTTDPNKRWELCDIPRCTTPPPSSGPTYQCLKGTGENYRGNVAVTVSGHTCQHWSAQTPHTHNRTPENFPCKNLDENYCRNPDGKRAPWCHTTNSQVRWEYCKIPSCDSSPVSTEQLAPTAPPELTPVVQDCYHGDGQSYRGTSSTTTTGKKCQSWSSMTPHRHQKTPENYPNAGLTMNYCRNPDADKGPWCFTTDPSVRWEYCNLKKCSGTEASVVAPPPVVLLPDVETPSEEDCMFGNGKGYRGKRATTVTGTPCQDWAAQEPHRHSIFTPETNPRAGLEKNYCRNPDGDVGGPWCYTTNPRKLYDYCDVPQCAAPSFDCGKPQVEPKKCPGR
# t-PA = biological target: T4, t-PA (Homo sapiens, UniProt P00750); test: Kass, t-PA chromogenic substrate assay; conditions: substrate H-D-Ile-Pro-Arg-p-nitroanilide
# T4 construct: purchased American Diagnostica, Greenwich, Conn
# T4 sequence (P00750 36-562): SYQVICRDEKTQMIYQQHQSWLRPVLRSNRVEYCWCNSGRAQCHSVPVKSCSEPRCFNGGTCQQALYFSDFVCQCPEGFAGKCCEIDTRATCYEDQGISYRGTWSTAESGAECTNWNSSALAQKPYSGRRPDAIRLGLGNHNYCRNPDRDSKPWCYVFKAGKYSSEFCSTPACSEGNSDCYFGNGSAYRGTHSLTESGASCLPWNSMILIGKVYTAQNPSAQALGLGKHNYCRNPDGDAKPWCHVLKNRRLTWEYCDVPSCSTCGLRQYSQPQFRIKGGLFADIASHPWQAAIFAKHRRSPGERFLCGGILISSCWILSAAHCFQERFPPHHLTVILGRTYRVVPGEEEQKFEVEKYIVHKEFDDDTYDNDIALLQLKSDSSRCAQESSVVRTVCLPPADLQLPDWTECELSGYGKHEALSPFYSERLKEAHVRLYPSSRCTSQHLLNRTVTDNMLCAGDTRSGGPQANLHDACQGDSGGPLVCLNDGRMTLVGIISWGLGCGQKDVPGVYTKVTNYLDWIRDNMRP
# Human Plasma [1] = test: Human plasma anticoagulation, thrombin time (TT); conditions: concentration required to double the clotting time
# Summary of the method: (§1)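 Values are concentrations estimated by linear extrapolation to double the clotting time in human plasma containing test compound across a wide range. Thrombin time was triggered with bovine thrombin at 10 NIH units/mL plus saline, and prothrombin time with Thromboplastin-C plus saline. For APTT, plasma sat with Actin reagent for 120 seconds before 0.02M CaCl2.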
# Human Plasma [2] = test: Human plasma anticoagulation, activated partial thromboplastin time (APTT); conditions: concentration required to double the clotting time
# Summary of the method: as §1
# Human Plasma [3] = test: Human plasma anticoagulation, prothrombin time (PT); conditions: concentration required to double the clotting time
# Summary of the method: as §1
Molecule,Kass × 10^6 (L/mole) Human Thrombin (Human Thrombin),Kass × 10^6 (L/mole) Xa (factor Xa),Kass × 10^6 (L/mole) Trypsin (Bovine trypsin),Kass × 10^6 (L/mole) Plasmin (Human plasmin),Kass × 10^6 (L/mole) t-PA (t-PA),Human Plasma Anticoagulation 2x Clotting time TT (Human Plasma [1]),Human Plasma Anticoagulation 2x Clotting time APTT (Human Plasma [2]),Human Plasma Anticoagulation 2x Clotting time PT (Human Plasma [3])
"N=C(N)c1cccc(CNC(=O)[C@@H]2CCCN2C(=O)[C@@H]2NCC[C@@H]3CCCC[C@@H]32)c1 [Example 25, D-1-Piq-Pro-m-NHCH2 -C6 H4 C(=NH)NH2.HCl]",0.43 × 10^6 L/mole,< 0.001 × 10^6 L/mole,0.01 × 10^6 L/mole,< 0.001 × 10^6 L/mole,0.01 × 10^6 L/mole,"1,430 ng/mL","34,600 ng/mL","40,400 ng/mL"
"CCS(=O)(=O)N[C@H](Cc1ccccc1)C(=O)N1CCC[C@H]1C(=O)NCc1cccc(NC(=N)N)c1 [Example 36, EtSO2 -D-Phe-Pro-m-NHCH2 C6 H4 NHC(NH)NH2.HCl]",0.06 × 10^6 L/mole,< 0.001 × 10^6 L/mole,0.01 × 10^6 L/mole,< 0.001 × 10^6 L/mole,< 0.001 × 10^6 L/mole,"7,700 ng/mL","> 91,000 ng/mL","> 91,000 ng/mL"
"CCS(=O)(=O)N[C@H](Cc1ccccc1)C(=O)N1CCC[C@H]1C(=O)NCc1ccc(NC(=N)N)cc1 [Example 34, EtSO2 -D-Phe-Pro-p-NHCH2 C6 H4 NHC(NH)NH2.HCl]",0.65 × 10^6 L/mole,< 0.001 × 10^6 L/mole,0.49 × 10^6 L/mole,0.01 × 10^6 L/mole,0.01 × 10^6 L/mole,530 ng/mL,"4,900 ng/mL","5,500 ng/mL"
"CCS(=O)(=O)N[C@H](Cc1ccccc1)C(=O)N1CCC[C@H]1C(=O)NCCc1cccc(C(=N)N)c1.Cl [Example 27, EtSO2 -D-Phe-Pro-m-NHCH2 CH2 -C6 H4 C(=NH)NH2.HCl]",0.29 × 10^6 L/mole,0.02 × 10^6 L/mole,0.02 × 10^6 L/mole,< 0.001 × 10^6 L/mole,0.02 × 10^6 L/mole,"1,940 ng/mL","27,800 ng/mL","27,000 ng/mL"
"CCS(=O)(=O)N[C@H](Cc1ccccc1)C(=O)N1CCC[C@H]1C(=O)NCCCc1cccc(C(=N)N)c1 [Example 31, EtSO2 -D-Phe-Pro-m-NHCH2 CH2 CH2 -C6 H4 C(=NH)NH2.HCl]",0.07 × 10^6 L/mole,0.14 × 10^6 L/mole,0.05 × 10^6 L/mole,< 0.001 × 10^6 L/mole,< 0.001 × 10^6 L/mole,"10,800 ng/mL","34,500 ng/mL","30,000 ng/mL"
"N=C(N)c1ccc(CNC(=O)[C@@H]2C[C@@H]3CCCC[C@@H]3N2C(=O)[C@H]2C[C@H]3CCCC[C@H]3CN2)cc1 (relative stereo) [Example 43, D-3-Piq-cis-Ohi-p-NHCH2 C6 H4 C(NH)NH2.2HCl]",1.4 × 10^6 L/mole,0.05 × 10^6 L/mole,100. × 10^6 L/mole,0.30 × 10^6 L/mole,0.01 × 10^6 L/mole,280 ng/mL,"1,100 ng/mL",930 ng/mL
"CCS(=O)(=O)N[C@H](Cc1ccccc1)C(=O)N1CCC[C@H]1C(=O)NCCCc1ccc(C(=N)N)cc1 [Example 30, EtSO2 -D-Phe-Pro-p-NHCH2 CH2 CH2 -C6 H4 C(=NH)NH2.HCl]",0.55 × 10^6 L/mole,0.02 × 10^6 L/mole,0.03 × 10^6 L/mole,< 0.001 × 10^6 L/mole,< 0.001 × 10^6 L/mole,"1,000 ng/mL","14,000 ng/mL","14,400 ng/mL"
"O=C(O)CN[C@H](CC1CCCCC1)C(=O)N1CCC[C@H]1C(=O)NCCCC1CCNCC1 [Example 55, HO2 CCH2 -D-Cha-Pro-4-NHCH2 CH2 CH2 -piperidine.HCl]",0.01 × 10^6 L/mole,< 0.001 × 10^6 L/mole,0.01 × 10^6 L/mole,< 0.001 × 10^6 L/mole,< 0.001 × 10^6 L/mole,"55,800 ng/mL","> 91,000 ng/mL","> 91,000 ng/mL"
D-hPro-N(PhCH2 CH2)Gly-p-NHCH2 -C6 H4 C(NH)NH2.2HCl [Example 21],3.6 × 10^6 L/mole,0.62 × 10^6 L/mole,0.96 × 10^6 L/mole,0.031 × 10^6 L/mole,0.002 × 10^6 L/mole,160 ng/mL,"2,000 ng/mL","1,000 ng/mL"
"Cl.O=C(O)CN[C@H](CC1CCCCC1)C(=O)N1CCC[C@H]1C(=O)NCCCC1=CCNCC1 [Example 60, HO2 CCH2 -D-Cha-Pro-4-NHCH2 CH2 CH2 -3,4-dehydro-piperidine.HCl]",0.24 × 10^6 L/mole,< 0.001 × 10^6 L/mole,0.03 × 10^6 L/mole,< 0.001 × 10^6 L/mole,< 0.001 × 10^6 L/mole,"3,200 ng/mL","22,200 ng/mL","77,700 ng/mL"
"N=C(N)c1ccc(CCNC(=O)[C@@H]2CCCN2C(=O)[C@@H]2NCC[C@@H]3CCCC[C@@H]32)cc1 [Example 28, 1-Piq-Pro-p-NHCH2 CH2 -C6 H4 C(=NH)NH2.2HCl]",0.95 × 10^6 L/mole,0.01 × 10^6 L/mole,0.11 × 10^6 L/mole,< 0.001 × 10^6 L/mole,< 0.001 × 10^6 L/mole,520 ng/mL,"8,100 ng/mL","8,300 ng/mL"
"N=C(N)c1ccc(CNC(=O)[C@@H]2C[C@H](Oc3ccccc3)CN2C(=O)[C@H]2CCCCN2)cc1 (relative stereo) [Example 22, D-hPro-Pro(4-cis-PhO)-P-NHCH2 -C6 H4 C(NH)NH2.2HCl]",3.0 × 10^6 L/mole,0.043 × 10^6 L/mole,8.5 × 10^6 L/mole,0.042 × 10^6 L/mole,0.004 × 10^6 L/mole,170 ng/mL,"2,300 ng/mL","1,000 ng/mL"

# Reference: patent US5705487A, “Antithrombotic agents” (priority 1995, dated 1998)
